Results taken from the supplement of paper PMC10307832.

How the values were obtained:
Assay in all cases: relative viability (nuclei count vs DMSO), 5 days (fraction); higher = more cells survive
[1] = compound: C1CC(C1)(C(=O)O)C(=O)O.[NH2-].[NH2-].[Pt+2] [Carboplatin] + Nc1nc2[nH]cc(CCc3ccc(C(=O)N[C@@H](CCC(=O)O)C(=O)O)cc3)c2c(=O)[nH]1 [Pemetrexed] (partner 0.2 µM)
How it was run: (§1)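 Relative viability is defined as nuclei in treated wells over nuclei in vehicle wells. Duplicate plates were run and medians reported. Lung cancer cell lines in 1536-well plates were dosed by pin tool one day after seeding, with one drug or with a fixed anchor-drug dose plus five library-drug doses (not always all listed) in √10 steps, and nuclei were counted after 5 days.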

[2] = compound: C1CC(C1)(C(=O)O)C(=O)O.[NH2-].[NH2-].[Pt+2] [Carboplatin] + COc1cccc2cc(-c3nc([C@H]4CC[C@H](C(=O)O)CC4)n4ncnc(N)c34)[nH]c12 [OSI-027] (partner 0.5 µM)
How it was run: as §1

[3] = compound: C1CC(C1)(C(=O)O)C(=O)O.[NH2-].[NH2-].[Pt+2] [Carboplatin] + O=C(CCCCCCC(=O)Nc1ccccc1)NO [Vorinostat] (partner 1 µM)
How it was run: as §1

[4] = compound: CC[C@H](C)N1C=C(C2=C(C=C(C=C21)C3=CN=C(C=C3)N4CCNCC4)C(=O)NCC5=C(C=C(NC5=O)C)C)C [GSK126] + CS(=O)(=O)N1CCN(Cc2cc3nc(-c4cccc5[nH]ncc45)nc(N4CCOCC4)c3s2)CC1 [Pictilisib] (partner 1 µM)
How it was run: as §1

Row | Cell Line | relative viability ([1]; first compound 0.08 µM) | relative viability ([1]; first compound 0.253 µM) | relative viability ([1]; first compound 0.8 µM) | relative viability ([1]; first compound 2.53 µM) | relative viability ([1]; first compound 8 µM) | relative viability ([2]; first compound 0.08 µM) | relative viability ([2]; first compound 0.253 µM) | relative viability ([2]; first compound 0.8 µM) | relative viability ([2]; first compound 2.53 µM) | relative viability ([2]; first compound 8 µM) | relative viability ([3]; first compound 0.08 µM) | relative viability ([3]; first compound 0.253 µM) | relative viability ([3]; first compound 0.8 µM) | relative viability ([3]; first compound 2.53 µM) | relative viability ([3]; first compound 8 µM) | relative viability ([4]; first compound 0.08 µM) | relative viability ([4]; first compound 0.253 µM) | relative viability ([4]; first compound 0.8 µM) | relative viability ([4]; first compound 2.53 µM) | relative viability ([4]; first compound 8 µM)
1 | HCC-78 | 0.898 | 0.905 | 0.893 | 0.883 | 0.854 | 0.433 | 0.368 | 0.341 | 0.379 | 0.375 | 0.472 | 0.403 | 0.386 | 0.378 | 0.431 | 0.25 | 0.201 | 0.178 | 0.217 | 0.237
2 | HCC-366 | 0.156 | 0.153 | 0.164 | 0.18 | 0.145 | 1.07 | 0.979 | 0.911 | 0.955 | 0.486 | 0.451 | 0.311 | 0.317 | 0.29 | 0.114 | 0.132 | 0.138 | 0.13 | 0.0968 | 0.126
3 | HCC-827 | 0.253 | 0.244 | 0.259 | 0.234 | 0.245 | 0.774 | 0.851 | 0.783 | 0.732 | 0.655 | 1.15 | 0.9 | 0.768 | 0.765 | 0.713 | 1.19 | 1.25 | 1.01 | 0.953 | 1.12
4 | HOP-62 | 0.416 | 0.328 | 0.332 | 0.328 | 0.308 | 0.905 | 0.808 | 0.823 | 0.777 | 0.726 | 0.654 | 0.662 | 0.635 | 0.664 | 0.542 | 0.894 | 0.758 | 0.64 | 0.86 | 0.785
5 | IA-LM | – | – | – | – | – | – | – | – | – | – | 0.952 | 1.05 | 1.05 | 0.913 | 0.81 | 0.359 | 0.286 | 0.301 | 0.443 | 0.36
6 | LC-2-ad | 0.278 | 0.28 | 0.294 | 0.308 | 0.272 | 0.877 | 0.825 | 0.778 | 0.696 | 0.404 | 0.724 | 0.746 | 0.659 | 0.728 | 0.594 | 0.506 | 0.687 | 0.647 | 0.522 | 0.567
7 | LCLC-97TM1 | 0.171 | 0.164 | 0.155 | 0.161 | 0.175 | 0.481 | 0.615 | 0.594 | 0.554 | 0.474 | 0.753 | 0.749 | 0.661 | 0.504 | 0.654 | 0.22 | – | 0.229 | 0.285 | 0.18
8 | LCLC-103H | 0.448 | 0.479 | 0.468 | 0.517 | 0.474 | 0.456 | 0.544 | 0.5 | 0.468 | 0.482 | 0.804 | 0.785 | 0.72 | 0.768 | 0.692 | 0.712 | 0.555 | 0.683 | 0.626 | 0.658
9 | LK-2 | 0.336 | 0.314 | 0.273 | 0.233 | 0.289 | 0.262 | 0.191 | 0.21 | 0.184 | 0.226 | 0.154 | 0.299 | 0.273 | 0.306 | 0.31 | 0.772 | 0.54 | 0.637 | 0.658 | 0.486
